Read-outs that look alike come from different tables or passages of the source.
Assays:
Rhesus PDE2A3 = Rhesus PDE2A3 (Macaca mulatta, UniProt B3VTJ2); assay: PDE2 fluorescence polarization (IMAP FP) inhibition assay, rhesus enzyme; type: biochemical, rhesus macaque
How it was run: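 Rhesus PDE2A3 came from lysate of transiently transfected AD293 cells, diluted to give 20% substrate conversion. Substrate was 50 nM FAM-cAMP with 1 uM cGMP activator in Tris pH 7.2/MgCl2 buffer, run 60 min at room temperature over 10-point 3-fold dilutions in 1% DMSO. Read-out was IMAP fluorescence polarization (mP) after ≥1 h binding.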

human PDE2A1 = human PDE2A1 (Homo sapiens (Human), UniProt O00408); assay: IMAP FP PDE selectivity panel, human PDE2A1; type: biochemical
Sequence of human PDE2A1 (O00408 other isoform, or with tags, fused parts or gaps): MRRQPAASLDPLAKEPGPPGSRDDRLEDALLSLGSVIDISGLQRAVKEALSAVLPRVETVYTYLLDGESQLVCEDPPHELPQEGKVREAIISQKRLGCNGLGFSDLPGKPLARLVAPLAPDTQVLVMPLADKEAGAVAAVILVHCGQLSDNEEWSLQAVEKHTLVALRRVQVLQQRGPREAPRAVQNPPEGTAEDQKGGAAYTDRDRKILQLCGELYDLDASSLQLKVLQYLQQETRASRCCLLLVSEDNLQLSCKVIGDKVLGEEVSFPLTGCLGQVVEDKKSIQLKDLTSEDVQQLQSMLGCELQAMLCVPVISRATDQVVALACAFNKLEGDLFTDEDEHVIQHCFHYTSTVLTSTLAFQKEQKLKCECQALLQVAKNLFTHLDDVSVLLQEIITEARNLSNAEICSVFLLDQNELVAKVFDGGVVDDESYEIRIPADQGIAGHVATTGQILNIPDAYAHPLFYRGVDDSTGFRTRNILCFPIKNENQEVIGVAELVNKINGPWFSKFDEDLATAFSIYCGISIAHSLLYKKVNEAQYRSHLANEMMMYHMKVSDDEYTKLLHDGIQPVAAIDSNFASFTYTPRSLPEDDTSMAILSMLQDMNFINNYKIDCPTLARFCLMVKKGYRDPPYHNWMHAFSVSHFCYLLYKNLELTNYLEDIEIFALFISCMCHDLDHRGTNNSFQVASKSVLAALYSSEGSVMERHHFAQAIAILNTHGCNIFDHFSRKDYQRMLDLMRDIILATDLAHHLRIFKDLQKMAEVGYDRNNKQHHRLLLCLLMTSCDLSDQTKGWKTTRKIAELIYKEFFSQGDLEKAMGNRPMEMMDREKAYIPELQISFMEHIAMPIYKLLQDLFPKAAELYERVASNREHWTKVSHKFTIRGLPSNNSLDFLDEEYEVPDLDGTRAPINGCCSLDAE
How it was run: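 GST-tagged human PDE2A1 expressed in insect cells, run at room temperature for 60 min with 50 nM FAM-cAMP containing 1000 nM cGMP, pH 7.2 Tris/MgCl2 buffer. IMAP fluorescence polarization read after binding step.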

[1] = Rhesus PDE2, Lab A, read-out: Rhesus PDE2 Ki (nM) - Lab A
[2] = Human PDE2, Lab A, read-out: Human PDE2 Ki (nM) - Lab A
[3] = Rhesus PDE2, Lab B, read-out: Rhesus PDE2 Ki (nM) - Lab B
[4] = Human PDE2, Lab B, read-out: Human PDE2 Ki (nM) - Lab B

Sequence of Rhesus PDE2A3 (B3VTJ2 1-941): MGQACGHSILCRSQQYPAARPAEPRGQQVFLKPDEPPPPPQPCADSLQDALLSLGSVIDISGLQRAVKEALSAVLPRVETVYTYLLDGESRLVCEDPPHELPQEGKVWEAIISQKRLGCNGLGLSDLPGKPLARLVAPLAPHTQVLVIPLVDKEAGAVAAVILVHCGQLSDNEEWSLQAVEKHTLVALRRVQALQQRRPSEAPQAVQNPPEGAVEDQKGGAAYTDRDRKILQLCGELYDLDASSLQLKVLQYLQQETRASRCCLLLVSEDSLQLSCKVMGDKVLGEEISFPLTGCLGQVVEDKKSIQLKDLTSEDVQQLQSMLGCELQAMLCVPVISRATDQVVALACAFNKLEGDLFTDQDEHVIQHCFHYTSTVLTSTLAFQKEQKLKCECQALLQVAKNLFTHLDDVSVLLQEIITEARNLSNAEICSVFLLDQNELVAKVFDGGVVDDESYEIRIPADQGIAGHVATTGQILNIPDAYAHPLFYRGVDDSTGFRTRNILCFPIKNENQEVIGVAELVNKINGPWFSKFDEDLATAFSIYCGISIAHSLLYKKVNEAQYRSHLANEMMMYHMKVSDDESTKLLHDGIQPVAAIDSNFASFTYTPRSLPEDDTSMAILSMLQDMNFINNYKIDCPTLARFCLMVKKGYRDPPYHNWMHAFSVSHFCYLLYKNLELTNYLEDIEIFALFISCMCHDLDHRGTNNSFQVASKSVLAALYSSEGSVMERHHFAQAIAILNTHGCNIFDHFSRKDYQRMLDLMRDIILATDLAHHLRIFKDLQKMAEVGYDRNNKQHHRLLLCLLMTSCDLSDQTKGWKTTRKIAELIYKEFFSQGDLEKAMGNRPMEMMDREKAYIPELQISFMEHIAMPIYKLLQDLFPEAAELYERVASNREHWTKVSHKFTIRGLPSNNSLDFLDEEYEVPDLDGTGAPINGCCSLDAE

| Ki (Rhesus PDE2A3; [1]) | Ki (human PDE2A1; [2]) | Ki (Rhesus PDE2A3; [3]) | Ki (human PDE2A1; [4]) | SMILES |
| --- | --- | --- | --- | --- |
| 76 nM | 18 nM |  |  | COCc1nc(C(=O)N[C@@H](c2ccc(C(F)(F)F)cc2)C2CC2)cc(=O)[nH]1 [Example 118, N-{(R)-cyclopropyl[4-(trifluoromethyl)phenyl]methyl}-2-(methoxymethyl)-6-oxo-1,6-dihydropyrimidine-4-carboxamide] |
| 39 nM | 23 nM |  |  | Cc1cc([C@@H](C)NC(=O)c2cc(=O)[nH]c(C3CC3)n2)ccc1C(F)(F)F [Example 231, 2-cyclopropyl-N-{(1R)-1-[3-methyl-4-(trifluoromethyl)phenyl]ethyl}-6-oxo-1,6-dihydropyrimidine-4-carboxamide] |
| 2.7 nM | 1.9 nM |  |  | CC[C@@H](NC(=O)c1cc(=O)[nH]c(-c2ccccc2)n1)c1ccc(OC(F)(F)F)c(F)c1 [Example 172] |
| 33 nM | 38 nM |  |  | Cc1nc(C(=O)NC(C(=O)O)c2ccc(C(F)(F)F)cc2)cc(=O)[nH]1 (single isomer, unassigned) [Example 328] |
|  |  | 1.9 nM | 1.8 nM | Cc1nc(C(=O)N[C@@H](c2ccc(C3CC3)c(F)c2)C(C)(C)C)cc(=O)[nH]1 [Example 428, N-[(1R)-1-(4-cyclopropyl-3-fluorophenyl)-2,2-dimethylpropyl]-2-methyl-6-oxo-1,6-dihydropyrimidine-4-carboxamide] |
|  |  | 8 nM | 7 nM | CC1([C@@H](NC(=O)c2cc(=O)[nH]c(C3CC3)n2)c2ccc(OC(F)F)cc2)CC1 [Example 443, 2-cyclopropyl-N-[(1R)-[4-(difluoromethoxy)phenyl](1-methylcyclopropyl)methyl]-6-oxo-1,6-dihydropyrimidine-4-carboxamide] |
|  |  | 115 nM | 75 nM | COc1ccc(C(C)(C)c2nc(C(=O)N[C@@H](c3ccc(C(F)(F)F)cc3)C3CC3)cc(=O)[nH]2)cc1 [Example 502, N-{(R)-cyclopropyl[4-(trifluoromethyl)phenyl]methyl}-2-[1-(4-methoxyphenyl)-1-methylethyl]-6-oxo-1,6-dihydropyrimidine-4-carboxamide] |
|  |  | 5.8 nM | 3.9 nM | Cc1nc(C(=O)N[C@@H](c2ccc(OC(F)(F)F)cc2)C(C)(C)C)cc(=O)[nH]1 [Example 57, (R)-N-(2,2-dimethyl-1-(4-(trifluoromethoxy)phenyl)propyl)-2-methyl-6-oxo-1,6-dihydropyrimidine-4-carboxamide] |
|  |  | 3.8 nM | 6.4 nM | CC(C)(C)[C@@H](NC(=O)c1cc(=O)[nH]c(C2CC2)n1)c1ccc(CC(F)(F)F)cc1 [Example 441, 2-cyclopropyl-N-{(1R)-2,2-dimethyl-1-[4-(2,2,2-trifluoroethyl)phenyl]propyl}-6-oxo-1,6-dihydropyrimidine-4-carboxamide] |
| 7.4 nM | 3.1 nM |  |  | O=C(N[C@@H](c1ccc(SC(F)(F)F)cc1)C1CC1)c1cc(=O)[nH]c(-c2ncccn2)n1 [Example 95, N-[(R)-cyclopropyl{4-[(trifluoromethyl)sulfanyl]phenyl}methyl]-6-oxo-1,6-dihydro-2,2′-bipyrimidine-4-carboxamide] |
| 124 nM | 78 nM |  |  | CC(NC(=O)c1cc(=O)[nH]c(C2CC2)n1)c1ccc(C(F)(F)F)cc1Cl (centres unmarked) [Example 233, N-{1-[2-chloro-4-(trifluoromethyl)phenyl]ethyl}-2-cydopropyl-6-oxo-1,6-dihydropyrimidine-4-carboxamide] |
|  |  | 1.2 nM | 1.2 nM | CC(C)(C)[C@@H](NC(=O)c1cc(=O)[nH]c(C2CC2)n1)c1ccc(OC(F)(F)F)c(F)c1 [Example 437, 2-cyclopropyl-N-{(1R)-1-[3-fluoro-4-(trifluoromethoxy)phenyl]-2,2-dimethylpropyl}-6-oxo-1,6-dihydropyrimidine-4-carboxamide] |
| 204 nM | 117 nM |  |  | CC(NC(=O)c1cc(=O)[nH]c(-c2ccccc2)n1)c1ccc(C(F)(F)F)cn1 (centres unmarked) [Example 149, 6-oxo-2-phenyl-N-{1-[5-(trifluoromethyl)pyridin-2-yl]ethyl}-1,6-dihydropyrimidine-4-carboxamide] |
| 6.7 nM | 6.7 nM |  |  | C[C@@H](NC(=O)c1cc(=O)[nH]c(-c2ccccc2)n1)c1ccc(C(F)(F)F)cc1 [Example 274, 6-oxo-2-phenyl-N-{(1R)-1-[4-(trifluoromethyl)phenyl]ethyl}-1,6-dihydropyrimidine-4-carboxamide] |
| 28 nM | 32 nM |  |  | O=C(NC1(c2ccc(SC(F)(F)F)cc2)CCC1)c1cc(=O)[nH]c(-c2ccccc2)n1 [Example 171, 6-oxo-2-phenyl-N-(1-{4-[(trifluoromethyl)sulfanyl]phenyl}cyclobutyl)-1,6-dihydropyrimidine-4-carboxamide] |
|  |  | 4.8 nM | 2.8 nM | Cc1nc(C(=O)N[C@@H](c2ccc(OC(F)(F)F)c(F)c2)C(C)(C)C)cc(=O)[nH]1 [Example 60, (R)-N-(1-(3-fluoro-4-(trifluoromethoxy)phenyl)-2,2-dimethylpropyl)-2-methyl-6-oxo-1,6-dihydropyrimidine-4-carboxamide] |

| Ki (Rhesus PDE2A3; [1]) | Ki (human PDE2A1; [2]) | Ki (Rhesus PDE2A3; [3]) | Ki (human PDE2A1; [4]) | SMILES |
| --- | --- | --- | --- | --- |
| 51 nM | 54 nM |  |  | COc1ccc2cc(C(C)NC(=O)c3cc(=O)[nH]c(C)n3)ccc2c1 (single isomer, unassigned) [Example 313, (R)- or (S)-N-[1-(6-methoxynaphthalen-2-yl)ethyl]-2-methyl-6-oxo-1,6-dihydropyrimidine-4-carboxamide] |
| 96 nM | 59 nM |  |  | CC(C)(NC(=O)c1cc(=O)[nH]c(C2CC2)n1)c1ccc(OC(F)(F)F)c(F)c1 [Example 198] |
| 90 nM | 76 nM |  |  | Cc1cc(C(F)(F)F)ccc1C(C)NC(=O)c1cc(=O)[nH]c(-c2ccccc2)n1 (centres unmarked) [Example 173, N-{1-[2-methyl-4-(trifluoromethyl)phenyl]ethyl}-6-oxo-2-phenyl-1,6-dihydropyrimidine-4-carboxamide] |
|  |  | 80 nM | 87 nM | CC(C)(NC(=O)c1cc(=O)[nH]c(C2CC2)n1)c1ccc(S(F)(F)(F)(F)F)cc1 [Example 680, 2-cyclopropyl-N-{1-methyl-1-[4-(pentafluoro-λ^6-sulfanyl)phenyl]ethyl}-6-oxo-1,6-dihydropyrimidine-4-carboxamide] |
| 66 nM | 50 nM |  |  | Cc1nc(C(=O)N[C@H](C)c2ccc(-c3cccc(F)c3)cc2)cc(=O)[nH]1 [Example 323, N-[(1R)-1-(3′-fluorobiphenyl-4-yl)ethyl]-2-methyl-6-oxo-1,6-dihydropyrimidine-4-carboxamide] |
|  |  | 1.2 nM | 1.1 nM | CC[C@@H](NC(=O)c1cc(=O)[nH]c(Cc2ccc(OC)c(F)c2)n1)c1ccc(OC(F)(F)F)c(F)c1 [Example 528, 2-(3-fluoro-4-methoxybenzyl)-N-{(1R)-1-[3-fluoro-4-(trifluoromethoxy)phenyl]propyl}-6-oxo-1,6-dihydropyrimidine-4-carboxamide] |
| 104 nM | 56 nM |  |  | C[C@@H](NC(=O)c1cc(=O)[nH]c(C2CC2)n1)c1cc(F)c(C(F)(F)F)c(F)c1 [Example 218, 2-cyclopropyl-N-{(1R)-1-[3,5-difluoro-4-(trifluoromethyl)phenyl]ethyl}-6-oxo-1,6-dihydropyrimidine-4-carboxamide] |
| 74 nM | 67 nM |  |  | Cc1nc(C(=O)N[C@H](C)c2ccc3ccccc3c2)cc(=O)[nH]1 [Example 16, 2-methyl-N-[(1R)-1-naphthalen-2-ylethyl]-6-oxo-1,6-dihydropyrimidine-4-carboxamide] |
| 12 nM | 7.2 nM |  |  | C[C@@H](NC(=O)c1cc(=O)[nH]c(-c2ncccn2)n1)c1ccc(C(F)(F)F)c(Cl)c1 [Example 110, N-{(1R)-1-[3-chloro-4-(trifluoromethyl)phenyl]ethyl}-6-pxo-1,6-dihydro-2,2′-bipyrimidine-4-carboxamide] |
|  |  | 14 nM | 9.4 nM | O=C(NC(CCO)c1ccc(C(F)(F)F)cc1)c1cc(=O)[nH]c(-c2ccccc2)n1 (centres unmarked) [Example 421, N-{3-hydroxy-1-[4-(trifluoromethyl)phenyl]propyl}-6-oxo-2-phenyl-1,6-dihydropyrimidine-4-carboxamide] |
| 19 nM | 15 nM |  |  | Cc1nc(C(=O)NC2(c3ccc(SC(F)(F)F)cc3)CC2)cc(=O)[nH]1 [Example 35, 2-Methyl-6-oxo-N-(1-(4-((trifluoromethyl)thio)phenyl)cyclopropyl)-1,6-dihydroy primidine-4-carboxamide] |
|  |  | 7.2 nM | 9.2 nM | Cc1nc(C(=O)N[C@@H](c2ccc(S(F)(F)(F)(F)F)cc2)C2(C)CC2)cc(=O)[nH]1 [Example 424, 2-methyl-N-{(R)-(1-methylcyclopropyl)[4-(pentafluoro-λ^6-sulfanyl)phenyl]methyl}-6-oxo-1,6-dihydropyrimidine-4-carboxamide] |
| 133 nM | 82 nM |  |  | CC(C)(NC(=O)c1cc(=O)[nH]c(-c2ccccc2)n1)c1ccc(OC(F)(F)F)cc1 [Example 281, N-{1-methyl-1-[4-(trifluoromethoxy)phenyl]ethyl}-6-oxo-2-phenyl-1,6-dihydropyrimidine-4-carboxamide] |
| 43 nM | 36 nM |  |  | O=C(NC1(c2ccc(C(F)(F)F)cc2)CC1)c1cc(=O)[nH]c(-c2ncccn2)n1 [Example 284, 6-oxo-N-{1-[4-(trifluoromethyl)phenyl]cyclopropyl}-1,6-dihydro-2,2′-bipyrimidine-4-carboxamide] |
|  |  | 7.5 nM | 7.8 nM | CC(C)(C)[C@@H](NC(=O)c1cc(=O)[nH]c(-c2ncccn2)n1)c1ccc(OC(F)(F)F)cc1 [Example 461, N-{(1R)-2,2-dimethyl-1-[4-(trifluoromethoxy)phenyl]propyl}-6-oxo-1,6-dihydro-2,2′-bipyrimidine-4-carboxamide] |

From patent US9815796B2 (Merck Sharp & Dohme Corp., priority 2013, dated 2017)
